# Test results as given in patent publication US12139458B2, “(2,5-dioxopyrrolidin-1-yl)(phenyl)-acetamide derivatives and their use in the treatment of neurological diseases” (UNIWERSYTET JAGIELLONSKI, priority 2019, dated 2024).
# Tests used:
# [1] = molecular target: T1, P-glycoprotein (Pgp) (Homo sapiens, UniProt P08183); test: Pgp-Glo Assay System (Pgp activity); format: in vitro ADME
# T1 construct: purchased Promega (Madison, WI, USA)
# Text: Impact on Pgp activity. P-glycoprotein (Pgp) is an integral plasma membrane protein that, as an ATP-dependent […] pump, actively removes xenobiotics and can cause drug interactions. Pgp plays an important role in the absorption of drugs in the gastrointestinal tract and also through the blood-brain barrier. A commercial bioluminescent Pgp-Glo™ Assay System test (Promega, Madison, WI, USA) was used to study the effect of compound 6 on Pgp activity. The operation of the test is based on measuring changes in the level of ATP consumed by membranes containing the recombinant Pgp protein in the presence of test compounds. The results were presented as % of baseline activity and compared to reference compounds: selective Pgp inhibitor Na3VO4 and verapamil stimulator.
# Impact on Pgp activity—methodology. The tests were performed according to the protocol of the bioluminescent Pgp-Glo™ Assay System test provided by the Promega company (Madison, WI, USA). […] Bioluminescence was measured with a PerkinElmer multispecific EnSpire plate reader (Waltham, MA USA). […] The calculated difference between the luminescence values of the inhibitor-treated sample and the control sample was taken as 100% of the Pgp base activity and treated as a negative control in the test. […] Statistical significance was calculated by one-way ANOVA variance analysis and the Bonferroni method using GraphPad Prism 5. […]
# [2] = Rotarod test (motor coordination); format: in vivo; details: male, Swiss albino (CD-1), mouse, in vivo, ip, mice
# Method in brief: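 Compounds were given i.p. in 1% aqueous Tween as single doses 30 min before testing, 4 mice per group, after training the day before. Mice were tested on a 2 cm rod at 10 rpm for 60 s, and failure to stay on for 1 min counted as impairment. Statistics: one-way ANOVA with Dunnett's test, p<0.05.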
# [3] = test system: male Swiss albino mice (CD-1); test: Maximal electroshock seizure test (MES); format: in vivo
# Method in brief: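 Seizures were induced by auricular electroshock (25 mA, 500 V, 0.2 s) 30 min after a single i.p. dose in 1% aqueous Tween, scoring hind-limb tonic extension. Animals were male Swiss CD-1 mice, 18–26 g; ED50 was estimated from 3–4 dose groups of 6.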
# [4] = test system: Na+ channel (site 2); test: Na+ channel (site 2) affinity study; format: binding; details: rat cerebral cortex
# Text: A unique feature of the compound 6 representing compounds of formula (II) according to the invention is the inhibition of calcium currents by blocking the transient receptor potential vanilloid type 1 (TRPV1). This effect has not been disclosed for known AEDs. TRPV1 receptor antagonism may determine the antinociceptive effect of the compounds disclosed herein. The role of the TRPV1 receptor in conduction of pain stimuli has been well documented in specialist literature (Szallasi, A.; Cortright, D. N.; Blum, C. A.; Eid, S. R. Nat. Rev. Drug. Discov. 2007, 6, 357-372). The compounds according to the invention are characterized by a complex mechanism of action, which is not described for known anticonvulsants. It should be emphasized, however, that further in vitro studies may reveal further molecular targets responsible for the pharmacological action of substances being the subject of current patent claim. The results of binding studies (sodium channel, calcium channel) and functional tests (TRPV1 receptor) for compound 6 are shown in Table 3.
# T1 sequence (P08183 whole entry): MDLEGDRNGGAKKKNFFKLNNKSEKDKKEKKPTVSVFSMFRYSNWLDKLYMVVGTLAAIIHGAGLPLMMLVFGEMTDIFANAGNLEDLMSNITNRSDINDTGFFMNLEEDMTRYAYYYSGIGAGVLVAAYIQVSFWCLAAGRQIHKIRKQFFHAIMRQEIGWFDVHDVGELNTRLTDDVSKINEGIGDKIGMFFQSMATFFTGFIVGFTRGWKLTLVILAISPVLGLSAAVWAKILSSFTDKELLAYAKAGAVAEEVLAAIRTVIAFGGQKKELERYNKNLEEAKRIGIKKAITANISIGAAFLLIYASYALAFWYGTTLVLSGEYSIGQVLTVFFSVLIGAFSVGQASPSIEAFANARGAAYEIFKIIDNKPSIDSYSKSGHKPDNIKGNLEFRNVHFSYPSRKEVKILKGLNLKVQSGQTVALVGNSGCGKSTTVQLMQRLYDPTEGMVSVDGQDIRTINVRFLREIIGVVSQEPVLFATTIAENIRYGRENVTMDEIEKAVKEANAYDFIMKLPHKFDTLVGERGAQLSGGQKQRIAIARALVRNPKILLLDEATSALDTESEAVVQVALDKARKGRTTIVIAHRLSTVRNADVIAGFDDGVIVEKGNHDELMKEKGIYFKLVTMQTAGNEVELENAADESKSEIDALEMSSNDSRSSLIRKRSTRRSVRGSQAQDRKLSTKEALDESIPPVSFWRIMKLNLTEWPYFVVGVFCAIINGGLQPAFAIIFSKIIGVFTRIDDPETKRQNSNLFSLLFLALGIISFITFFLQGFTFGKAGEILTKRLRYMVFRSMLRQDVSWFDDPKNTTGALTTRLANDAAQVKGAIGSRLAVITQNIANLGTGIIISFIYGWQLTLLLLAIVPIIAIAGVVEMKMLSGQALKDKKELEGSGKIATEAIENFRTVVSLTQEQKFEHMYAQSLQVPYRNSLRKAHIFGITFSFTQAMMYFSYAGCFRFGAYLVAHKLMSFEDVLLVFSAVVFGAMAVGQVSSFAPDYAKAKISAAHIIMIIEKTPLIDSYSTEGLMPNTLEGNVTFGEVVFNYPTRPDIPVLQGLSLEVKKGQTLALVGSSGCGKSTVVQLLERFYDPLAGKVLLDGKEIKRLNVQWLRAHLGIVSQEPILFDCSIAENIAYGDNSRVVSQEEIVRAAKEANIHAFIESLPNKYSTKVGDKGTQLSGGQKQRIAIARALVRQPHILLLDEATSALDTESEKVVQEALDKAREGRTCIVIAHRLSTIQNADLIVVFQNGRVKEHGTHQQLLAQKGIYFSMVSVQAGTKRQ
compound,measurement,setting,value
"O=C(C(c1ccccc1)N1C(=O)CCC1=O)N1CCN(c2cccc(C(F)(F)F)c2)CC1 (racemic) [Compound 6, 1-(2-Oxo-1-phenyl-2-(4-(3-(trifluoromethyl)phenyl)piperazin-1-yl)ethyl)pyrrolidine-2,5-dione]",effect on Pgp activity,[1]; 50 μM,no effect on Pgp activity
same,"Pgp activity, % of baseline activity","[1]; 100 μM, inhibitory effect, p<0.01",38%
same,TD50 at 0.5 h,[2],196 mg/kg
same,ED50,"[3]; Mus musculus, ip, 0.5 h, mice",23.7 mg/kg
same,mice protected in the MES test,"[3]; screening, 100 mg/kg, time point 0.5 h",100%
same,"Inhibition of specific control binding, Na+ channel (site 2)",[4]; 10 μM,33.4 (10) %
same,"Inhibition of specific control binding, Na+ channel (site 2)",[4]; 100 μM,82.5 (100) %
